22 molecules from ChEMBL document CHEMBL4196103, “Bioactive Sesquiterpenoids from the Peeled Stems of Syringa pinnatifolia” (J Nat Prod, 2018) can be followed below.

Molecules are shown by their SMILES. The source made the active and inactive calls. The calls are words filed in the database; no cut-off is given here.

Data set [1] relates to RAW264.7. Description: Antiinflammatory activity against mouse RAW264.7 cells assessed as inhibition of LPS-induced NO production at 80 uM preincubated for 2 hrs followed by LPS stimulation measured after 24 hrs by Griess reagent based assay relative to control. Type of data set: functional.
The test system of data set [2] is RAW264.7. Put plainly: Antiinflammatory activity against mouse RAW264.7 cells assessed as inhibition of LPS-induced NO production preincubated for 2 hrs followed by LPS stimulation measured after 24 hrs by Griess reagent based assay. Type of data set: functional, cell-based.
For data set [3], the species on record is Mus musculus. Description: Protection against hypoxia-induced injury in […] cells assessed as increase in cell viability at 40 uM incubated for 20 hrs under hypoxia condition by CCK-8 assay. It is filed as functional, cell-based.
The subject of data set [4] is RAW264.7. Put plainly: Antiinflammatory activity against mouse RAW264.7 cells assessed as inhibition of LPS-induced TNFalpha production preincubated for 1 hr followed by LPS stimulation measured after 24 hrs by ELISA. Type of data set: functional, cell-based.
Data set [5] has as its system RAW264.7. Put plainly: Antiinflammatory activity against mouse RAW264.7 cells assessed as inhibition of LPS-induced IL-6 production preincubated for 1 hr followed by LPS stimulation measured after 24 hrs by ELISA. Type of data set: functional, cell-based.
Data set [6] can be described thus: Cytotoxicity against […] cells assessed as decrease in cell viability at 20 uM incubated for 24 hrs by CCK-8 assay. It is filed as cell-based.

As to `CC1(C)C/C=C(/C=O)CC[C@H]2[C@H]1CC(=O)[C@]2(C)O`, the inhibition at 80 µM in data set [1] was less than 50%.

In the case of `C=C1CC[C@H]2O[C@]2(C)[C@@H](O)C[C@@H]2[C@@H]1CC2(C)C` [SUBEROSOL A], the inhibition at 80 µM in data set [1] is less than 50%.

`COC1CC/C(C)=C/CC(C)(C)/C=C/C(=O)C1CO` (centres undefined): in data set [2], the IC50 stood at 18.1 µM. The outcome in data set [3] was Active. The inhibition result in data set [4] and in data set [5] was “Dose-dependent effect” each time.

Take `C/C1=C\C[C@H](O)[C@]2(C)O[C@H]2CC(C)(C)/C=C/C1=O`: the inhibition at 80 µM in data set [1] was less than 50%.

Regarding `CCC(=O)/C=C/C(C)(C)C/C=C(\C)CCC=O`, the inhibition at 80 µM in data set [1] is less than 50%.

With `C/C1=C\CC(C)(C)/C=C/C(=O)[C@@H](CO)CCC1`, in data set [2], the concentration for half-maximal inhibition (IC50) came out at 70.6 µM. For the same molecule, the inhibition entry in data set [4] and in data set [5] was “Dose-dependent effect” throughout.

In the case of `C=C1CC[C@H](O)[C@H](C)C(=O)C[C@@H]2[C@@H]1CC2(C)C`, the inhibition at 80 µM in data set [1] was less than 50%.

Turning to `C/C1=C\CC(C)(C)/C=C/C(=O)/C(CO)=C/CC1`, in data set [6], the Activity result was “Toxic”.

With `C/C1=C\CC(C)(C)/C=C/C(=O)[C@H](C)[C@H](O)CC1`, in data set [1], the inhibition at 80 µM is less than 50%.

For the molecule `CC1(C)C/C=C(/C=O)CC[C@@H]2[C@@H]1CC(=O)[C@@]2(C)O`, in data set [1], the inhibition at 80 µM is less than 50%.

Consider `C/C1=C\CC(C)(C)/C=C/C(=O)[C@H](CO)CCC1`, for which the IC50 in data set [2] was determined as 33.1 µM. The inhibition result in data set [4] and in data set [5] was “Dose-dependent effect” in each case.

For `C/C1=C\CC(C)(C)/C=C/[C@H](O)[C@H](C)CCC1`, the inhibition at 80 µM in data set [1] is less than 50%.

With `COc1ccc2c(c1)c(CC(=O)O)c(C)n2C(=O)c1ccc(Cl)cc1` [INDOMETHACIN], the IC50 in data set [2] came to 33.6 µM.

As to `C/C1=C\CC(C)(C)/C=C/C(=O)[C@@H](C)[C@@H](O)CC1`, the inhibition at 80 µM in data set [1] is less than 50%.

Take `CO[C@@H]1CC/C(C)=C/CC(C)(C)/C=C/C(=O)[C@H]1CO`: the concentration for half-maximal inhibition (IC50) in data set [2] turned out to be 27.2 µM. The result in data set [3] was Active. The inhibition result in data set [4] and in data set [5] was “Dose-dependent effect” each time.

Turning to `CO[C@H]1CC/C(C)=C/CC(C)(C)/C=C/C(=O)[C@@H]1CO`, the IC50 in data set [2] was found to be 41.4 µM. The inhibition entry in data set [4] and in data set [5] was “Dose-dependent effect” each time.

Regarding `C/C1=C\CC[C@@]2(C)O[C@@H]2CC(C)(C)/C=C/C1=O` [ZERUMBONE EPOXIDE], the IC50 in data set [2] was 22.3 µM. The inhibition result in data set [4] and in data set [5] was “Dose-dependent effect” throughout.

Consider `C=C1C(=O)C/C=C(\C)[C@@H](O)C[C@@H]2[C@@H]1CC2(C)C`, for which, in data set [1], the inhibition at 80 µM was less than 50%.

For the molecule `CO[C@H]1CC[C@]2(C)O[C@H]2CC(C)(C)/C=C/C(=O)[C@H]1C`, the inhibition at 80 µM in data set [1] is less than 50%.

Regarding `CO[C@@H]1CC[C@@]2(C)O[C@@H]2CC(C)(C)/C=C/C(=O)[C@@H]1C`, the inhibition at 80 µM in data set [1] is less than 50%.

Regarding `C/C1=C\CC[C@@]2(C)O[C@@H]2[C@@H](O)C(C)(C)/C=C/C1=O`, the inhibition at 80 µM in data set [1] is less than 50%.

In the case of `C/C1=C\CC(C)(C)/C=C/C(=O)/C(C)=C/CC1` [ZERUMBONE], the half-inhibitory concentration (IC50) in data set [2] is 13.6 µM. The outcome in data set [3] was Active. Moreover, the inhibition entry in data set [4] and in data set [5] was “Dose-dependent effect” in each case.
